Reference: ChEMBL document CHEMBL1201862, “PubChem BioAssay data set” (2004)
Activity calls are given as the source filed them.

Tests used:
Caspase-6 = biological target: T1, Caspase-6 (Homo sapiens, UniProt P55212); assay: inhibition of CASP6 peptide cleavage – biochemical, VEID-R110 fluorescence, cherry-pick, dose response (AID 720632)
T1 sequence (P55212 whole entry): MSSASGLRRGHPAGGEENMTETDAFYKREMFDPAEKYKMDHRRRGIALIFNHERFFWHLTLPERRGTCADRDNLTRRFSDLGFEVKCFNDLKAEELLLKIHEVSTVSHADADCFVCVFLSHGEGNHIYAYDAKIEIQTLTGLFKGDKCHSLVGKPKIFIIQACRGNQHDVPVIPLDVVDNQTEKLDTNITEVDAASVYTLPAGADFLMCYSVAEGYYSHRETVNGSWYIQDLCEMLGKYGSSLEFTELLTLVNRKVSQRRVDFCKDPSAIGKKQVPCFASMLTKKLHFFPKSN

Genome polyprotein = Genome polyprotein (dengue virus type 2, UniProt P29990); assay: flavivirus cap methylation enzyme inhibition – biochemical, confirmation dose response, primary screen (AID 588689); assay type: functional
Genome polyprotein, sequence (P29990 2492-3391 limits assumed): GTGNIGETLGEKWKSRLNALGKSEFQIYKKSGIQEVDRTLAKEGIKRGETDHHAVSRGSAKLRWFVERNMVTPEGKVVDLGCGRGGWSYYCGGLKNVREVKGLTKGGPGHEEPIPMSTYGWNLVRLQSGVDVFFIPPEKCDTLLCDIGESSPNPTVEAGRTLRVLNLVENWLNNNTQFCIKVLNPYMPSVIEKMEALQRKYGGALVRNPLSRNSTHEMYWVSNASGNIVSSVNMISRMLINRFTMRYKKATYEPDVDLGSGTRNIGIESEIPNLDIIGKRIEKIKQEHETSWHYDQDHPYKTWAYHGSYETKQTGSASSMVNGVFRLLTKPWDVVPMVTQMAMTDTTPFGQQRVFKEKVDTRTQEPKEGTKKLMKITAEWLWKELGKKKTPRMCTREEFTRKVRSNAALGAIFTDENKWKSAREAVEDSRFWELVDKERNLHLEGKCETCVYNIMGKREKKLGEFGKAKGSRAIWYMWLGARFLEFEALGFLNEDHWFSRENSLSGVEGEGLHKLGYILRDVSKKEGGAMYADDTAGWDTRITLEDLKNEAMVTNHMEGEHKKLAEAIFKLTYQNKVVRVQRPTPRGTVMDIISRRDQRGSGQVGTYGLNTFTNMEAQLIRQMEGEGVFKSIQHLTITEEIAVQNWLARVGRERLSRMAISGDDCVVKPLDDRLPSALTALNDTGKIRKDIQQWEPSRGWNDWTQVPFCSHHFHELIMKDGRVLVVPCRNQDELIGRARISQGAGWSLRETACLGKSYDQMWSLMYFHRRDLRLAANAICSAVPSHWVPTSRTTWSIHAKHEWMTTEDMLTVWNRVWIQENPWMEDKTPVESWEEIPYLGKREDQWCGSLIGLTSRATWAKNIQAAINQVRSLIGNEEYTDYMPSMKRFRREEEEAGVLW

Caspase-7 = Caspase-7 (Homo sapiens, UniProt P55210); assay: caspase-7 enzyme inhibition, selectivity check – biochemical, DEVD-R110 fluorescence, cherry-pick, selectivity assay for caspase-6 inhibitor project, dose response (AID 743295); assay type: functional
Caspase-7, sequence (P55210 24-198 limits assumed): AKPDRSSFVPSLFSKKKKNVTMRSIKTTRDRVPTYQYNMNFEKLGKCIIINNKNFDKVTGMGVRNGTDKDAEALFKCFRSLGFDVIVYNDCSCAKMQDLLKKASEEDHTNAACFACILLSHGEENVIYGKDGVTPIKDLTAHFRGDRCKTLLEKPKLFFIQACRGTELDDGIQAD
Caspase-7, sequence (P55210 207-303 limits assumed): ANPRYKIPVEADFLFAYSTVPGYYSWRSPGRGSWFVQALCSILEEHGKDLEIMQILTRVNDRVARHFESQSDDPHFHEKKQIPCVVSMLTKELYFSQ

[1] = biological target: Voltage-gated inwardly rectifying potassium channel KCNH2 (Homo sapiens, UniProt Q12809); settings: Potency;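 further: confirmatory quantitative high-throughput screen measuring inhibition of hERG channel activity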
Voltage-gated inwardly rectifying potassium channel KCNH2, sequence (Q12809 whole entry): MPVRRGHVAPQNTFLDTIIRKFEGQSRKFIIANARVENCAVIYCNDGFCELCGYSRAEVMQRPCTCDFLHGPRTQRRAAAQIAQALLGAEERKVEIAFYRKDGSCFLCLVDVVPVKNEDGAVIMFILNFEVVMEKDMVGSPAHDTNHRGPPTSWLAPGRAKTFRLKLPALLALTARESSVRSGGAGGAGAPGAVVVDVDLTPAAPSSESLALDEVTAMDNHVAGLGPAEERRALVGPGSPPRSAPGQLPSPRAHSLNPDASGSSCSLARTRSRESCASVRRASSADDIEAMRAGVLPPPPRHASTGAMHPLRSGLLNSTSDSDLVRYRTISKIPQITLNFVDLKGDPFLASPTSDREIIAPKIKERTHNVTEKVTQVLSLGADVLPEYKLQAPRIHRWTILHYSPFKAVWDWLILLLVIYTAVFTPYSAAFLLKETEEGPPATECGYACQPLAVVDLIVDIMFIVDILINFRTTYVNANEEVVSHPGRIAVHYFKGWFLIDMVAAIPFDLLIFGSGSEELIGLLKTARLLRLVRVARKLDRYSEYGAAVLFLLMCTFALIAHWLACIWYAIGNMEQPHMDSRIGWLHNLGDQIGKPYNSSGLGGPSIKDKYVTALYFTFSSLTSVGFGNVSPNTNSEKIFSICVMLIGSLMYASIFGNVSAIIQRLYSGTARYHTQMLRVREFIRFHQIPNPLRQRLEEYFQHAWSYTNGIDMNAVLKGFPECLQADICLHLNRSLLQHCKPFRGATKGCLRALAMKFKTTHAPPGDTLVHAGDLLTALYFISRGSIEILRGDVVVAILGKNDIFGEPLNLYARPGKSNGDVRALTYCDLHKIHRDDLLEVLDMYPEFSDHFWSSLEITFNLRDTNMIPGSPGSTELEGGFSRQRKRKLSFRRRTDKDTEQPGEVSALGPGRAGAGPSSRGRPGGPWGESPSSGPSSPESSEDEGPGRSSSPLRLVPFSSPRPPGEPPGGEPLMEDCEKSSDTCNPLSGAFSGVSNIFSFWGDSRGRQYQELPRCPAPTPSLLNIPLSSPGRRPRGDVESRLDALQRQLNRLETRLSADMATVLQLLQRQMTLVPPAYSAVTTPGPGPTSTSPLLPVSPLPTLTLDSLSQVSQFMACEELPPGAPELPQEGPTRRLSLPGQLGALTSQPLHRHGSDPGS

Protein skinhead-1 = biological target: T2, Protein skinhead-1 (Caenorhabditis elegans, UniProt P34707); assay type: functional
T2 sequence (P34707 whole entry): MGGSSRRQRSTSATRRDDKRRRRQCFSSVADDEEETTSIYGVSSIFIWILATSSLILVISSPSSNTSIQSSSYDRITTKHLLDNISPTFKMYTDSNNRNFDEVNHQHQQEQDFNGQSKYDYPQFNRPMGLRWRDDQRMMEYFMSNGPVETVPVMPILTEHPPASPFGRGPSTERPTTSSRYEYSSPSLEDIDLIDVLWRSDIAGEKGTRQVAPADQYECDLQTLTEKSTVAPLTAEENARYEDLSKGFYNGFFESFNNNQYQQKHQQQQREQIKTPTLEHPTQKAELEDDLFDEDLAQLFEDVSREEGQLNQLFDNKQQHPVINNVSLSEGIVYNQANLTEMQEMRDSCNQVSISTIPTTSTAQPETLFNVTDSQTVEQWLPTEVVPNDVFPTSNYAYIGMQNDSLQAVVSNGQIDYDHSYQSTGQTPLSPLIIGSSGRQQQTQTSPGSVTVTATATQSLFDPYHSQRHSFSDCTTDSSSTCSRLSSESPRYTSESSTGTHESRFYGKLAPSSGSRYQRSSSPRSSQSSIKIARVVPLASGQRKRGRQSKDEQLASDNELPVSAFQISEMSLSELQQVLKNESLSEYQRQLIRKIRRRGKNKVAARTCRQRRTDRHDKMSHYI

[2] = biological target: T3, Histone-lysine N-methyltransferase NSD2 (Homo sapiens, UniProt O96028); assay type: biochemical
T3 sequence (O96028 whole entry): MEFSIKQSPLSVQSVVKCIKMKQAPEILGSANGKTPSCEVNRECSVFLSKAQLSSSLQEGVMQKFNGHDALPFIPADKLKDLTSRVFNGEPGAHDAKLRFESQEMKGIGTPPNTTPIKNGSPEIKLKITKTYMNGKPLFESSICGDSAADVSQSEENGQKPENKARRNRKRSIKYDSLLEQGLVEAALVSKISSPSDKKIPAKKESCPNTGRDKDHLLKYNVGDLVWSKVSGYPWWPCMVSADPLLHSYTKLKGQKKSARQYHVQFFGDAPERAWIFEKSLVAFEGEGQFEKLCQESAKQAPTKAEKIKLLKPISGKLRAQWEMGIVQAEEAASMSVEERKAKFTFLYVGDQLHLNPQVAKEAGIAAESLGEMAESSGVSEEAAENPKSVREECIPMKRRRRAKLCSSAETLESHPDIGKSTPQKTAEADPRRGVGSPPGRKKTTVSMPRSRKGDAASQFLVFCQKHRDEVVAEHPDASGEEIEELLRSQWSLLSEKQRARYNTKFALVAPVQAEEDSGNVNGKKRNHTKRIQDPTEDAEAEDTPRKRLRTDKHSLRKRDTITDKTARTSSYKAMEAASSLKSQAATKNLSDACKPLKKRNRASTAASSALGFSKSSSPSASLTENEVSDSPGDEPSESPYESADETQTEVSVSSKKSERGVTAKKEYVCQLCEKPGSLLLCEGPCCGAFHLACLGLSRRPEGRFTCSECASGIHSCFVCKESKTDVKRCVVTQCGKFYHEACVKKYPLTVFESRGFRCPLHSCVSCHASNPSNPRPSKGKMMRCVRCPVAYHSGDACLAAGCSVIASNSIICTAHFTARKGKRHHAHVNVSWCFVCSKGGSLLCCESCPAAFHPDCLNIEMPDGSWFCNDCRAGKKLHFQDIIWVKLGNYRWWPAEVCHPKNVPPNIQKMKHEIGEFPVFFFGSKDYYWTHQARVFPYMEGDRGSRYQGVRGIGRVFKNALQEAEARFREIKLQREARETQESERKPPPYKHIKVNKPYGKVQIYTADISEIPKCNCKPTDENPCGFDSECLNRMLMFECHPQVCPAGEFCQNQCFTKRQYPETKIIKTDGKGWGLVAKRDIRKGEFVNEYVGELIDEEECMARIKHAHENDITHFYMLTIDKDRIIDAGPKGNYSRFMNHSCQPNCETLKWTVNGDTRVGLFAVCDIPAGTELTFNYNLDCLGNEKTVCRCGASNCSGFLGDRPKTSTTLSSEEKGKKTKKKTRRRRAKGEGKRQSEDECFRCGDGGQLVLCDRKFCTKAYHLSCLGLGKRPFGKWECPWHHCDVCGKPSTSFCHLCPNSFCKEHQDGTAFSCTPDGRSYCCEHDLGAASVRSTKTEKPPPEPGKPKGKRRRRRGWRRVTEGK

[3] = biological target: Glucose-6-phosphate 1-dehydrogenase (Homo sapiens, UniProt P11413); assay: inhibition of Homo sapiens G6PD, dose series – biochemical, fluorescence, selectivity assay for P. falciparum G6PD inhibitor project, dose response (AID 504792); assay type: functional
Glucose-6-phosphate 1-dehydrogenase, sequence (P11413 whole entry): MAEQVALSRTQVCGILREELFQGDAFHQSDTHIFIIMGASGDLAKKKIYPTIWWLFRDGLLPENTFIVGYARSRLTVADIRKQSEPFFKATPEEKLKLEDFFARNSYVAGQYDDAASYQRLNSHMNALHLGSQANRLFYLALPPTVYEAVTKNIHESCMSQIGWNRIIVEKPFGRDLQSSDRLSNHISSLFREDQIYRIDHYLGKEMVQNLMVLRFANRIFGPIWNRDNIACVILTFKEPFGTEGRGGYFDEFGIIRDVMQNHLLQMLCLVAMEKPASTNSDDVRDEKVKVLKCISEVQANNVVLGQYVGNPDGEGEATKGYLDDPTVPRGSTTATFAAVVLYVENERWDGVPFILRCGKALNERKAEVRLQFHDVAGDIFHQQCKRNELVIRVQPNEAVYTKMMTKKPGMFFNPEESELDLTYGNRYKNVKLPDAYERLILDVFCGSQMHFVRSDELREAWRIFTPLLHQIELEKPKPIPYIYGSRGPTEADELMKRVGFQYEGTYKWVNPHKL

Oc1cc2c(cc1O)[C@H]1c3ccc(O)c(O)c3OC[C@@]1(O)C2
AC50 (Caspase-6): 3.95 µM (active) | IC50 (Genome polyprotein): 22.5 µM (active) | AC50 (Caspase-7): 68.5 µM (active) | AC50 [1]: 22.4 µM (inconclusive) | IC50 (Protein skinhead-1): > 100 µM (inactive) | AC50 [2]: 1.53 µM (active) | IC50 [3]: 67.6 µM (inactive)
